In PMC11714206, “Massively Parallel Screening of Toll/Interleukin‐1 Receptor (TIR)‐Derived Peptides Reveals Multiple Toll‐Like Receptors (TLRs)‐Targeting Immunomodulatory Peptides” (Advanced Science, 2024):
Several values for one entry are separate records, joined by “and”; a condition that tells them apart may be missing. Identical values can stand only once. Each block holds one substance with its values, some of them ahead of it.

What was measured:
MAL^TIR = biological target: T1, MAL^TIR (Homo sapiens, UniProt P58753); assay: T‐Surf phage library (P8 and P3) selection against MAL^TIR, four rounds, NGS read counts; format: binding; conditions: for Population: 4th round of selection against MAL TIR, share of NGS reads; for P3_MAL Rank (after) / P3_MAL Rank (before): P3 library; for P8_MAL Rank (after) / P8_MAL Rank (before): P8 library
T1 construct: MAL (residues 79–221); 6xHis; made in house; host or cells: E. coli BL21 (DE3)
Method in brief: (§1)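 Read counts come from NGS of phage pools after the fourth selection round, barcoded by 20-cycle PCR and filtered for quality ≥30. Each round: phage incubated 1 h at RT on immobilised TIR protein (5 µg mL^−1, BSA-blocked), washed, HCl-eluted and amplified in E. coli TG1.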

MyD88^TIR = biological target: T2, MyD88^TIR (Homo sapiens, UniProt Q99836); assay: T‐Surf phage library (P8 and P3) selection against MyD88^TIR, four rounds, NGS read counts; format: binding; conditions: for Population: 4th round of selection against MyD88 TIR, share of NGS reads; for P3_MyD88 Rank (after) / P3_MyD88 Rank (before): P3 library
T2 construct: MyD88 (residues 148–296); 6xHis; made in house; host or cells: E. coli BL21 (DE3)
Method in brief: as §1

[1] = tested on: human conjunctival epithelial cells and rabbit cornea; conditions: cited from earlier work
[2] = P3_MAL pool: P3 T-Surf phage library
[3] = P3_MyD88 pool: P3 T-Surf phage library
[4] = selection against MAL TIR, rank by count after grouping
[5] = selection against MAL TIR, rank by count before grouping
[6] = P3_MyD88: rank by count after grouping
[7] = P3_MyD88: rank by count before grouping
[8] = P3_MAL: rank by count after grouping
[9] = P3_MAL: rank by count before grouping
[10] = selection against MyD88 TIR, rank by count after grouping
[11] = selection against MyD88 TIR, rank by count before grouping

T1 sequence (P58753 79-221): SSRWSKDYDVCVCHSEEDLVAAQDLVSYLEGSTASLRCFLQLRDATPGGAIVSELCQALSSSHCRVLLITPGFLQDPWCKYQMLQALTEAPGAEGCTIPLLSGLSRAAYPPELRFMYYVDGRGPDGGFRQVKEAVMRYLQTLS
T2 sequence (Q99836 148-296): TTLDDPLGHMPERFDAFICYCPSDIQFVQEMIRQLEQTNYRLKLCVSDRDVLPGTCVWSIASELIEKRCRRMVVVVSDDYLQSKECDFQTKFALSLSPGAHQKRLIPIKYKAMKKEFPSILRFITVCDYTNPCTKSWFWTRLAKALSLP

Substance: SSFREGLWRLLVLSKK
- Population (MAL^TIR; [2]): 0.00338%
- Population (MyD88^TIR; [3]): 0.00437%

Substance: WFWDKLIYALSRNPH
- P3_MAL Rank (after) (MAL^TIR; [4]): 278
- P3_MAL Rank (before) (MAL^TIR; [5]): 712
- Rank (after) (MyD88^TIR; [6]): 155
- Rank (before) (MyD88^TIR; [7]): 549

Substance: YAFTGHLHRYLVQHGV
- Population (MAL^TIR; [2]): 0.0109%
- Population (MyD88^TIR; [3]): 0.00378%

Substance: YLKWGDPYFWSKLRYAM
- Rank (after) (MAL^TIR; [8]): 159
- Rank (before) (MAL^TIR; [9]): 519
- Population (MyD88^TIR; [3]): 0.00466%

Substance: YTALTNSGFHTFREM
- P3_MAL Rank (after) (MAL^TIR; selection against MAL, rank after grouping): 500
- P3_MAL Rank (before) (MAL^TIR; selection against MAL, rank before grouping): 1548
- P3_MyD88 Rank (after) (MyD88^TIR; [10]): 213
- P3_MyD88 Rank (before) (MyD88^TIR; [11]): 1675

Substance: penetratin
- cellular and tissue toxicity compared with other CPPs such as TAT and polyarginine [1]: lower cellular and tissue toxicity
- cellular uptake [1]: excellent cellular uptake

More lines, main results first:

- Population (MAL^TIR; [2]): 0.00338%
- Population (MyD88^TIR; [3]): 0.00466%
Substance: SSFREGPWRLLELSKK

- P8_MyD88 Rank (after) (MyD88^TIR; P8 library, 4R selection against MyD88, rank after grouping): 615
- P8_MyD88 Rank (before) (MyD88^TIR; P8 library, 4R selection against MyD88, rank before grouping): 1356
Substance: WFYERLVSLILRDTKV
- Population (MAL^TIR; P8_MAL pool: P8 T-Surf phage library): 0.00432% and 0.00402% and 0.00371% and 0.0034% and 0.00309% and 0.00278%

- P8_MAL Rank (after) (MAL^TIR; [4]): 287
- P8_MAL Rank (before) (MAL^TIR; [5]): 1431
- Rank (after) (MyD88^TIR; P8_MyD88: rank by count after grouping): 162
- Rank (before) (MyD88^TIR; P8_MyD88: rank by count before grouping): 180
- Population (MyD88^TIR; P8_MyD88 pool: P8 T-Surf phage library): 0.00732%
Substance: WKNALANIAEILGFEL

- Rank (after) (MAL^TIR; [8]): 115
- Rank (before) (MAL^TIR; [9]): 207
- Rank (after) (MyD88^TIR; [6]): 169
- Rank (before) (MyD88^TIR; [7]): 841
Substance: YAFTGHLHRYLVQHCE

- Rank (after) (MAL^TIR; [8]): 413
- Rank (before) (MAL^TIR; [9]): 1402
- P3_MyD88 Rank (after) (MyD88^TIR; [10]): 196
- P3_MyD88 Rank (before) (MyD88^TIR; [11]): 1511
Substance: YAFTGHLHRYLVQREPAGN

- P3_MAL Rank (after) (MAL^TIR; [4]): 251
- P3_MAL Rank (before) (MAL^TIR; [5]): 1443
- Rank (after) (MyD88^TIR; [6]): 120
- Rank (before) (MyD88^TIR; [7]): 1532
Substance: YAFTGHLQRYLVHRGV

- P8_MAL Rank (after) (MAL^TIR; [4]): 227
- P8_MAL Rank (before) (MAL^TIR; [5]): 799
- P3_MyD88 Rank (after) (MyD88^TIR; selection against MyD88, rank after grouping): 502
- P3_MyD88 Rank (before) (MyD88^TIR; selection against MyD88, rank before grouping): 1556
Substance: YASSSWALDELLRILY

- P3_MAL Rank (after) (MAL^TIR; 4R selection against MAL, rank after grouping): 662
- P3_MAL Rank (before) (MAL^TIR; 4R selection against MAL, rank before grouping): 1520
- P3_MyD88 Rank (after) (MyD88^TIR; 4R selection against MyD88, rank after grouping): 601
- P3_MyD88 Rank (before) (MyD88^TIR; 4R selection against MyD88, rank before grouping): 1609
Substance: YLKWKEALHQFHSWV

- Rank (after) (MAL^TIR; P8_MAL: rank by count after grouping): 105
- Rank (before) (MAL^TIR; P8_MAL: rank by count before grouping): 584
- Population (MyD88^TIR; [3]): 0.00291%
Substance: YTALTNSGFHTFRDND

- P3_MAL Rank (after) (MAL^TIR; selection against MAL, rank by count after grouping): 751
- P3_MAL Rank (before) (MAL^TIR; selection against MAL, rank by count before grouping): 1535
- P3_MyD88 Rank (after) (MyD88^TIR; selection against MyD88, rank by count after grouping): 682
- P3_MyD88 Rank (before) (MyD88^TIR; selection against MyD88, rank by count before grouping): 1622
Substance: YTLLAICMMRCIVIV
